Source: article PMC12143348, “Rapid and reversible fluorescent probe enables repeated snapshot imaging of AMPA receptors during synaptic plasticity” (Science Advances, 2025)
“Also recorded” adds a separate entry of the source.

Key:
[1] = test system: cultured hippocampal neurons; assay: cLTP stimulation and quantification of cell-surface AMPARs in spines of cultured hippocampal neurons; format: cell-based, mouse; conditions: [AP5] = 50 µM, [MK-801] = 20 µM, [KN93] = 5 µM, [BFA] = 25 µM; 200 µM glycine 15 min
Description: After washing the cells with Hepes-based ACSF, 100 nM PFQX1(AF488) was added to the dish. The cells were scanned to obtain “basal state” images. Then, the cells were washed three times with cLTP stimulation buffer (Hepes-based ACSF except for MgCl2 supplemented with 20 μM bicuculline and 1 μM strychnine) to remove PFQX1(AF488). cLTP was induced by 200 μM glycine in cLTP stimulation buffer for 15 min at room temperature. After washing the cells with cLTP incubation buffer (Hepes-based ACSF supplemented with 20 μM bicuculline and 1 μM strychnine), the cells were incubated for 60 min at room temperature. Last, 100 nM PFQX1(AF488) was added to the dish, and images were scanned to obtain “after cLTP” images. Inhibitors (50 μM AP5 and 20 μM MK-801 for NMDARs and 5 μM KN93 for CaMKII and 25 μM […] for exocytosis) were added to cLTP stimulation buffer and cLTP incubation buffer. To quantify the fluorescence intensity in spines, the average signal intensity of ROIs set on dendritic spines or dendritic shafts was calculated by ZEN blue software after subtracting background fluorescence. The fold change value was calculated using the following equation: (fluorescence intensity of “after cLTP” images)/(fluorescence intensity of “basal state” images).
To label endogenous AMPARs, 10 μM CAM2(TCO) in the culture medium was gently added to the hippocampal neurons on a glass-bottom dish to a final concentration of 2 μM CAM2(TCO). The cells were incubated for 2 hours at 37°C. In the second step, the culture medium was removed, and the cells were treated with 100 nM Tz(ST647) for 5 min in Hepes-based ACSF at room temperature. To quench excess Tz(ST647), 1 μM TCO-OH in Hepes-based ACSF was added. Then, the cells were treated with 100 nM PFQX1(AF488). Imaging was performed with confocal microscopy.

AMPARs [2] = assay: Staining of AMPARs in acute cerebellar slices; format: binding, mouse; conditions: 10 µM NBQX with 30 nM PFQX1(AF488), 5 min; molecular layer
Description: following secondary antibodies were used: donkey anti-mouse CF568 conjugated (Sigma, […]
1:1,000) and anti-rabbit Alexa Fluor Plus 488 conjugated (Invitrogen, A32731, 1,000).
Imaging was performed with confocal microscopy.
With two-step labeling, the cells were labeled as described in “Two -step labeling and PFQX1(AF488)staining in cultured neurons,” followed by immunostaining.
In fig. S9A, the cells were incubated with 500 nM CellTracker Red CMPTX (Invitrogen) instead of Calcein Red AM for 30 min at 37 °C to visualize the intracellular region before the immunostaining.
Preparation and staining of cerebellar acute brain slices
C57BL/6J mice (3 weeks) were anesthetized with isoflurane, and their brains were isolated and immediately transferred to ice-cold cutting solution buffer (120 mM Choline Chloride, 3 mM KCl, 8 mM MgCl2, 1.25 mM NaH2PO4, 28 mM NaHCO3, 22 mM Glucose, and 0.5 mM Sodium ascorbate) gassed with 5% CO2 and 95% O2 and incubated for 5 min. Sagittal cerebellar slices were cut with a microslicer (Neo-linear slicer NLS-MT; DOSAKA EM) in cutting solution buffer and then incubated in ACSF […]
NaHCO3, 10 mM Glucose) gassed with 5% CO 2 and 95% O 2 at 37 °C.
Acute slices were transferred to glass bottom dishes and treated with 30 nM PFQX1(AF488) in HEPES-based ACSF for 5 min. […]
Scale bars, 500 µm. (F) Quantification of probe intensity in Ε. […]

native AMPARs = assay: Concentration-dependent binding of PFQX1(AF488) to AMPARs in primary cultured hippocampal neurons; set-up: species or system mouse; conditions: 10 µM NBQX added after 100 nM PFQX1(AF488); cultured hippocampal neurons
Description: We modified the Banker’s culture method of hippocampal neurons ([59]). Glass-bottom dishes (14 mm φ, Matsunami) were coated with poly-D-lysine (Sigma-Aldrich) and washed three times with sterile dH2O. Hippocampi from 16-day-old ICR mouse embryos were aseptically dissected and digested with 0.25% (w/v) trypsin (Nacalai Tesque) for 20 min at 37°C. The cells were resuspended in Neurobasal Plus medium supplemented with 10% FBS, 1 mM GlutaMAX I (Invitrogen), penicillin (100 U/ml), and streptomycin (100 μg/ml) and filtered by Cell Strainer (100 μm, Falcon) followed by centrifugation at 1000 rpm for 5 min. The cells were resuspended in Neurobasal Plus medium supplemented with 2% of B-27 Plus Supplement, 1 mM GlutaMAX I (Invitrogen), penicillin (100 U/ml), and streptomycin (100 μg/ml) and plated at a density of 2 × 10^4 cells on glass-bottom dishes. Precultured cortical astrocytes on glass coverslips (13 mm φ) were transferred to the dishes so that astrocytes were faced to neurons. The cultures were maintained at 37°C in a 95% air and 5% CO2 humidified incubator. The culture medium was replaced every 7 days, and the neurons were used at 16 to 18 days in vitro (DIV).
Calcein Red AM (50 nM; AAT Bioquest) was added to the cultured neurons for 30 min at 37°C to visualize the intracellular region. The cells were washed with Hepes-based ACSF [25 mM Hepes (pH 7.4), 140 mM NaCl, 5 mM KCl, 1.3 mM CaCl2, 2 mM MgCl2, and 33 mM glucose], and 100 nM PFQX1(AF488) in Hepes-based ACSF was added to the dish.
For evaluating the concentration dependency of PFQX1(AF488), the cells were treated with 1 nM PFQX1(AF488). Then, PFQX1(AF488) in Hepes-based ACSF was added stepwise to the dish to a final concentration of 3, 10, 30, 100, 300, and 1000 nM. To quantify the concentration dependency after cLTP, the procedure described above was conducted after cLTP stimulation as described in the section “cLTP and quantification of cell-surface AMPARs.” The average intensity of ROIs set on spines was calculated by ZEN blue software after subtracting background fluorescence. The intensity was fitted with KaleidaGraph to calculate the equilibrium constant value using the following equation: a + (b − a)/(1 + (x/c)^d). The equilibrium constant is regarded as the Kd in this study.

AMPARs [3] = target: AMPARs; set-up: method as in earlier work; conditions: read-out: inhibition constant (Ki) for AMPARs; cited from earlier work
GluA1–4 = assay: Fluorescence Ca2+ assay, inhibition of glutamate-induced response in HEK293T cells transfected with GluA1-4; format: cell-based, mouse; conditions: 30 µM glutamate-induced Ca2+ response; GluA1–4 in HEK293T cells
Description: HEK293T cells transfected with Ca2+-permeable GluA1–4 (GluA1 flip(Q), GluA2flip(Q), GluA3flip(Q) (Y454A/R461G), and GluA4flip(Q)) or GluK2(Q) were seeded on the 96 well plate. The cells were loaded with 5 µM Cal-520 AM (AAT Bioquest) in the culture medium for 2 h and washed with HBS using AquaMax 2000 (Molecular devices). The imaging experiment was carried out in an HBS buffer. For the fluorescence Ca2+ imaging, PFQX-amine was pretreated to the cells for 3 min followed by the addition of 30 µM glutamate with 100 µM cyclothiazide as a desensitization inhibitor for AMPARs and 100 µM kainic acid with 100 µM BPAM344 as a desensitization inhibitor for kainate receptors.
Fluorescent intensity of Cal-520 was obtained using FlexStation3 (Molecular devices), and analyzed with SoftMax Pro 7 (Molecular devices). ΔRFU was defined as the difference between the maximum intensity value after adding glutamate and the average intensity value before adding the glutamate. ΔRFU was fitted with KaleidaGraph.
Immunostaining of cultured neurons
The cultured hippocampal neurons were fixed with cold methanol for 5 min and washed with PBS three times. Fixed cells were incubated with Blocking One Histo (Nacalai Tesque) for 10 min. The cells were washed with PBS containing 0.05% Tween 20 (PBS-T) once and incubated with primary antibodies in PBS-T containing 5% Blocking One Histo at room temperature for 2 h. […]

[4] = test system: Halo-tag-fused GluA2 in HEK293T cells; assay: Exocytosis assay of AMPARs in HEK293T cells (Halo-tag pulse labeling); format: cell-based; conditions: 25 µM, 2 h at 37 °C
Description: Exocytosis assay of AMPARs in HEK293T cells
HEK293T cells expressing Halo-tag-GluA2 flip(Q)-3’UTR were treated with Halo-tag ligand-Alexa488 (HTL(AF488)) for 30 min at room temperature as a first pulse. After washing with DMEM three times, the cells were incubated with 25 µM brefeldin A or DMSO for 2 h at 37 °C in a 95% air and 5% CO2 humidified incubator. Then, HTL(AF647) was added to the dishes and incubated for 15 min at room temperature as a second pulse to visualize spontaneous exocytosed AMPARs. Labeled cells were fixed with 4% PFA for 15 min. The fluorescent images were obtained using confocal […]
General materials and methods for organic synthesis
All chemical reagents and solvents were purchased from commercial sources (FUJIFILM Wako pure chemical, TCI chemical, Sigma-Aldrich, Click Chemistry Tools, BroadPharm) and were used without further purification. Thin-layer chromatography (TLC) was performed on silica gel 60 F254 precoated aluminum sheets (Merck).
Chromatographic purification was performed by flash column chromatography on silica gel 60 N (neutral, 40–50 µm, Kanto Chemical). 1H-NMR spectra were recorded in deuterated solvents on an Avance III HD 300 MHz or 500 MHz (Bruker). […] High-resolution mass spectra were measured on a Compact (Bruker) equipped with electron spray ionization (ESI). […]

In the case of `NC(CCCP(=O)(O)O)C(=O)O` (stereo not drawn) [AP5], the “effect on the increase in PFQX1(AF488) fluorescence in spines after cLTP stimulation” value (from here on “effect on the increase”) [1] is reported as “suppressed the increase in PFQX1(AF488) fluorescence; also recorded: increase in both PFQX1(AF488) and ST647 fluorescence was not observed”.
For `COc1ccc(S(=O)(=O)N(CCO)c2ccccc2CN(C)C/C=C/c2ccc(Cl)cc2)cc1` [KN93], the “effect on the increase” value [1] was “suppressed the increase in PFQX1(AF488) fluorescence”.
With `C[C@]12N[C@H](Cc3ccccc31)c1ccccc12` [MK-801] the “effect on the increase” value [1] was “suppressed the increase in PFQX1(AF488) fluorescence”.
In the case of `NS(=O)(=O)c1cccc2c1c([N+](=O)[O-])cc1[nH]c(=O)c(=O)[nH]c12` [NBQX, 2,3-dioxo-6-nitro-1,2,3,4-tetrahydrobenzo(f)quinoxaline-7-sulfonamide, reference compound], the “competitive inhibition of PFQX1(AF488) binding in cerebellar slices” value (AMPARs [2]) is reported as “significantly weakened” and the “competitive inhibition of PFQX1(AF488) binding in neurons” value (native AMPARs) is reported as “fluorescent signals from the puncta disappeared”.
In the case of `O=c1[nH]c2cc(-n3cccc3)c(C(F)(F)F)cc2[nH]c1=O` [PFQX, 6-pyrrolyl-7-trifluoromethyl-quinoxaline-2,3-dione], the Ki (AMPARs [3]) is given as 0.17 µM and the “antagonism of AMPAR subunits” value (GluA1–4) is given as “antagonized AMPARs in a subunit-nonspecific manner”.
With `C[C@H]1CCC/C=C/[C@@H]2C[C@H](O)C[C@H]2[C@H](O)/C=C/C(=O)O1` [brefeldin A] the “effect on spontaneous exocytosis of Halo-tag-fused AMPAR to the cell surface” value [4] was “markedly suppressed the spontaneous exocytosis” and the “effect on the increase” value [1] was “inhibited the fluorescent increase in PFQX1(AF488)”.
